Measurements published in patent US4857641A, “C.12 modified erythromycin A derivatives” (Pfizer Inc., priority 1987, dated 1989).
Read-outs that look alike come from different tables or passages of the source.

Key:
Experiment in all cases: in vitro antibacterial activity (MIC), BHI agar dilution
Type in all cases: cell-based
Neis. sic. = Neis. sic. 000, 18 hours at 37° C
Protocol: (§1) The compounds of the formula (3) are tested for in vitro antibacterial activity by standard methods in which the minimum inhibitory concentrations (MIC's) in mcg/ml against one or more microorganisms is measured. One such procedure is the one recommended by the International Collaborative Study on Antibiotic Sensitivity Testing (Ericcson and Sherris, Acta. Pathologica et Microbiologia Scandinav, Supp. 217, Section B: 64-68 [1971]), and employs brain heart infusion (BHI) agar and an inocula replicating device. Overnight growth tubes are diluted 100 fold for use as the standard inoculum (20,000-10,000 cells in approximately 0.002 ml. are placed on the agar surface; 20 ml. of BHI agar/dish). Twelve 2 fold dilutions of the test compound are employed, with initial concentration of the test drug being 200 mcg/ml. Single colonies are disregarded when reading plates after 18 hours at 37° C. The susceptibility (MIC) of the test organism is accepted as the lowest concentration of compound capable of producing complete inhibition of growth as judged by the naked eye.

E. coli = E. coli 470, 18 hours at 37° C
Protocol: as §1

Staph. aureus = tested on: Staph. aureus
Protocol: as §1

Hem. infl. = tested on: Hem. infl.
Protocol: as §1

Staph. epid. = Staph. epid. 111, 18 hours at 37° C
Protocol: as §1

Strep. faec. = Strep. faec. 006, 18 hours at 37° C
Protocol: as §1

Strep. pyog. = tested on: Strep. pyog.
Protocol: as §1

Pat. mult. = tested on: Pat. mult.
Protocol: as §1

Strep. pneum. = Strep. pneum. 012, 18 hours at 37° C
Protocol: as §1

[1] = Escherichia coli, read-out: MIC
[2] = Staph. aureus 052, 18 hours at 37° C
[3] = Staph. aureus 110, 18 hours at 37° C
[4] = Staphylococcus aureus, Staph. aureus 005, 18 hours at 37° C, read-out: MIC
[5] = 18 h, Hem. infl. 038, 18 hours at 37° C, read-out: MIC
[6] = 18 h, Hem. infl. 042, 18 hours at 37° C, read-out: MIC
[7] = 18 h, Hem. infl. 073, 18 hours at 37° C, read-out: MIC
[8] = 18 h, Hem. infl. 078, 18 hours at 37° C, read-out: MIC
[9] = 18 h, Hem. infl. 081, 18 hours at 37° C, read-out: MIC
[10] = 18 h, Strep. pyog. 054, 18 hours at 37° C, read-out: MIC
[11] = 18 h, Strep. pyog. 203, 18 hours at 37° C, read-out: MIC

Measured: MIC

C=C1C(CC)OC(=O)C(C)C(OC2CC(C)(OC)C(OC(C)=O)C(C)O2)C(C)C(OC2OC(C)CC(N(C)C)C2O)C(C)(O)CC(C)C(O)C(C)C1O (stereo not drawn) [Compound 3b, 4"-O-Acetyl-12,12'anhydro-9-deoxo-9R-hydroxyerythromycin A]
50 µg/mL: Neis. sic.; read-out: MIC | Hem. infl.; [5]
25 µg/mL: E. coli; [1] | Pat. mult.; 18 h
> 50 µg/mL: Staph. aureus; [2] | Staph. aureus; [3] | Staph. aureus; [4] | Hem. infl.; [6] | Hem. infl.; [7] | Hem. infl.; [8] | Hem. infl.; [9] | Staph. epid.; read-out: MIC | Strep. faec.; read-out: MIC | Strep. pyog.; [10]
3.12 µg/mL: Strep. pyog.; [11]

CCC1OC(=O)C(C)C(OC2CC(C)(OC)C(OC(C)=O)C(C)O2)C(C)C(OC2OC(C)CC(N(C)C)C2O)C(C)(O)CC(C)C(O)C(C)C(O)C1(O)CO (stereo not drawn) [Compound 3d, 4"-O-Acetyl-9-deoxo-9R-12'-dihydroxyerythromycin A]
3.12 µg/mL: Strep. pyog.; [11]
> 50 µg/mL: Neis. sic.; read-out: MIC | Staph. aureus; [2] | Staph. aureus; [3] | Staph. aureus; [4] | Hem. infl.; [5] | Hem. infl.; [8] | Hem. infl.; [9] | Staph. epid.; read-out: MIC | Strep. pyog.; [10]
12.5 µg/mL: E. coli; [1]
25 µg/mL: Strep. faec.; read-out: MIC
50 µg/mL: Hem. infl.; [6] | Hem. infl.; [7] | Pat. mult.; Pat. mult. 001, BHI agar, 18 hours at 37° C, read-out: MIC

4"-0-Acetyl-12,12'-anhydro-9-deoxo-11-deoxy-9R,11-(thiocarbonyldioxy)erythromycin A [Compound 3a]
50 µg/mL: Neis. sic. | Staph. aureus; Staph. aureus 005, 18 hours at 37° C | Staph. aureus; [2] | Staph. aureus; [3] | Hem. infl.; Hem. infl. 042, 18 hours at 37° C | Hem. infl.; Hem. infl. 073, 18 hours at 37° C | Hem. infl.; Hem. infl. 078, 18 hours at 37° C | Hem. infl.; Hem. infl. 081, 18 hours at 37° C | Strep. faec. | Strep. pyog.; Strep. pyog. 054, 18 hours at 37° C
> 50 µg/mL: Hem. infl.; Hem. infl. 012, 18 hours at 37° C | Hem. infl.; Hem. infl. 038, 18 hours at 37° C
3.12 µg/mL: Strep. pyog.; Strep. pyog. 203, 18 hours at 37° C | Strep. pneum.
6.25 µg/mL: E. coli
25 µg/mL: Pat. mult.; Pat. mult. 001, BHI agar, 18 hours at 37° C
12.5 µg/mL: Staph. epid.
